{"source": "patent US20160033699A1", "about": "“POLARIZING PLATE” (NITTO DENKO CORPORATION, priority 2014, published 2016)"}
{"assay": "log P value (octanol/water partition coefficient)", "settings": "not given"}
{"compound": "CSc1ccc(C(=O)C(C)(C)N2CCOCC2)cc1", "note": "[IRGACURE 907, 2-methyl-1-(4-methylthiophenyl)-2-morpholinopropan-1-one]", "logP": 2.09}
{"assay": "log P value (octanol/water partition coefficient)", "settings": "octanol/water"}
{"compound": "C=CC(=O)OCCCCCCCCCCOC(=O)C=C", "note": "[1,10-decanediol diacrylate]", "logP": 4.1}
{"assay": "log P value (octanol/water partition coefficient)", "settings": "octanol/water partition coefficient"}
{"compound": "CCc1cc(CC)c2sc3ccccc3c(=O)c2c1", "note": "[KAYACURE DETX-S, diethylthioxanthone]", "log P": 5.12}
{"compound": "bisphenol A di(meth)acrylate", "log P": 5.46}
{"compound": "bisphenol A-propylene oxide (2 mole) adduct di(meth)acrylate", "log P": 6.10}
{"compound": "bisphenol A-propylene oxide (4 mole) adduct di(meth)acrylate", "log P": 6.43}
{"compound": "neopentyl glycol hydroxypivalate-(meth)acrylic acid adduct", "log P": 3.35}
{"compound": "p-phenylphenol (meth)acrylate", "log P": 3.98}
{"compound": "tricyclodecanedimethanol diacrylate [LIGHT ACRYLATE DCP-A]", "log P": 3.05}
